pIC50: −log10 of the molar value.

This test deals with IDH2 R140Q (Homo sapiens (Human), UniProt P48735, R140Q). In words: IDH2 R140Q enzymatic cofactor depletion assay (diaphorase/resazurin). Format: biochemical. Conditions: IDH2 R140Q enzyme, one hour preincubation with compound, one hour reaction; read-out: Enz R140Q. The protocol: The reaction was terminated by the addition of a second enzyme, diaphorase, and a corresponding substrate, resazurin. Diaphorase reduces resazurin to the highly fluorescent resorufin with the concomitant oxidation of NADPH to NADP, both halting the IDH2 reaction by depleting the available cofactor pool and facilitating quantitation of the amount of cofactor remaining after a specific time period through quantitative production of an easily detected fluorophore.
Sequence of IDH2 R140Q (P48735 40-452 R140Q): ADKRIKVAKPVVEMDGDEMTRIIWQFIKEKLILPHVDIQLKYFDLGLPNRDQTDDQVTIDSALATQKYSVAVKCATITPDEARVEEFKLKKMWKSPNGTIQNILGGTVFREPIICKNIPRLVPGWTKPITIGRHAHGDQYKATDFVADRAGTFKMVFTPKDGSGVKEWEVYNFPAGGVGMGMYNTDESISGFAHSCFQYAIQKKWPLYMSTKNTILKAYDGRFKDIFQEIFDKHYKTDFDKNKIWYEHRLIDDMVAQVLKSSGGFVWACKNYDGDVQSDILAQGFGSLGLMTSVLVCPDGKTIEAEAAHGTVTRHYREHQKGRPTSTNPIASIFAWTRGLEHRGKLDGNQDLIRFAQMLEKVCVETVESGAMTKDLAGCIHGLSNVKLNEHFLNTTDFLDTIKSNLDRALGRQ
The compound was then incubated for one hour at room temperature with the enzyme; before starting the IDH2 reaction with the addition of 10 μl of substrate mix containing 50 μM NADPH and 6.3 mM α-KG in the buffer described above. After a further one hour of incubation at room temperature, the reaction was halted and the remaining NADPH measured through conversion of resazurin to resorufin by the addition of 25 μl Stop Mix (36 μg/ml diaphorase enzyme and 60 μM resazurin; in buffer). After one minute of incubation the plate was read on a plate reader at Ex544/Em590.
On the technique in general: The colour change of resazurin is a common sign of viable cells or microbes.
With “2-(3-(1-methyl-1H-pyrazol-5-yl)ureido)-N-(2,2,2-trifluoroethyl)-[1,1′-biphenyl]-4-sulfonamide [Compound 77]”, the pIC50 is 6.00 to 7.00.

In the case of “3′-methyl-N-morpholino-2-(3-(3-(trifluoromethyl)phenyl)ureido)-[1,1′-biphenyl]-4-sulfonamide [Compound 49]”, the pIC50 was 6.00 to 7.00.

With `O=C(Nc1ccccc1)Nc1cc(S(=O)(=O)Nc2ccccc2)ccc1-c1ccsc1` [Compound 1, N-phenyl-3-(3-phenylureido)-4-(thiophen-3-yl)benzenesulfonamide], the pIC50 is 6.00 to 7.00.

In the case of `Cc1ccccc1NC(=O)Nc1cc(S(=O)(=O)Nc2ccccc2)ccc1-c1ccsc1` [Compound 2, N-phenyl-4-(thiophen-3-yl)-3-(3-(o-tolyl)ureido)benzenesulfonamide], the pIC50 is 6.00 to 7.00.

On to `Cc1cccc(NC(=O)Nc2cc(S(=O)(=O)Nc3ccccc3)ccc2-c2ccsc2)c1` [Compound 3, N-phenyl-4-(thiophen-3-yl)-3-(3-(m-tolyl)ureido)benzenesulfonamide], for which the pIC50 is 6.00 to 7.00.

In the case of `CCc1ccccc1NC(=O)Nc1cc(S(=O)(=O)Nc2ccccc2)ccc1-c1ccsc1` [Compound 4, 3-(3-(2-ethylphenyl)ureido)-N-phenyl-4-(thiophen-3-yl)benzenesulfonamide], the pIC50 is 6.00 to 7.00.

On to `CCc1cccc(NC(=O)Nc2cc(S(=O)(=O)Nc3ccccc3)ccc2-c2ccsc2)c1` [Compound 5, 3-(3-(3-ethylphenyl)ureido)-N-phenyl-4-(thiophen-3-yl)benzenesulfonamide], for which the pIC50 was 6.00 to 7.00.

Take `COc1ccccc1NC(=O)Nc1cc(S(=O)(=O)Nc2ccccc2)ccc1-c1ccsc1` [Compound 6, 3-(3-(2-methoxyphenyl)ureido)-N-phenyl-4-(thiophen-3-yl)benzenesulfonamide]: the pIC50 was 6.00 to 7.00.

`COc1cccc(NC(=O)Nc2cc(S(=O)(=O)Nc3ccccc3)ccc2-c2ccsc2)c1` [Compound 7, 3-(3-(3-methoxyphenyl)ureido)-N-phenyl-4-(thiophen-3-yl)benzenesulfonamide]: the pIC50 was 6.00 to 7.00.

Regarding `O=C(Nc1cccc(Cl)c1)Nc1cc(S(=O)(=O)Nc2ccccc2)ccc1-c1ccsc1` [Compound 8, 3-(3-(3-chlorophenyl)ureido)-N-phenyl-4-(thiophen-3-yl)benzenesulfonamide], the pIC50 was 6.00 to 7.00.

As to `O=C(Nc1ccccc1F)Nc1cc(S(=O)(=O)Nc2ccccc2)ccc1-c1ccsc1` [Compound 9, 3-(3-(2-fluorophenyl)ureido)-N-phenyl-4-(thiophen-3-yl)benzenesulfonamide], the pIC50 was 6.00 to 7.00.

Regarding `O=C(Nc1cc(S(=O)(=O)Nc2ccccc2)ccc1-c1ccsc1)Nc1ccccc1C(F)(F)F` [Compound 10, N-phenyl-4-(thiophen-3-yl)-3-(3-(2-(trifluoromethyl)phenyl)ureido)benzenesulfonamide], the pIC50 is 6.00 to 7.00.

Consider `Cc1ccc(C)c(NC(=O)Nc2cc(S(=O)(=O)Nc3ccccc3)ccc2-c2ccsc2)c1` [Compound 11, 3-(3-(2,5-dimethylphenyl)ureido)-N-phenyl-4-(thiophen-3-yl)benzenesulfonamide], for which the pIC50 is 6.00 to 7.00.

`Cc1ccc(F)c(NC(=O)Nc2cc(S(=O)(=O)Nc3ccccc3)ccc2-c2ccsc2)c1` [Compound 12, 3-(3-(2-fluoro-5-methylphenyl)ureido)-N-phenyl-4-(thiophen-3-yl)benzenesulfonamide]: the pIC50 is 6.00 to 7.00.

Consider `O=C(Nc1ccccc1O)Nc1cc(S(=O)(=O)Nc2ccccc2)ccc1-c1ccsc1` [Compound 13], for which the pIC50 was 5.00 to 6.00.

As to `CC(C)c1cccc(NC(=O)Nc2cc(S(=O)(=O)Nc3ccccc3)ccc2-c2ccsc2)c1` [Compound 14], the pIC50 was 5.00 to 6.00.

Regarding `Cc1cccc(C)c1NC(=O)Nc1cc(S(=O)(=O)Nc2ccccc2)ccc1-c1ccsc1` [Compound 15], the pIC50 was 5.00 to 6.00.

In the case of `Cc1cc(C)cc(NC(=O)Nc2cc(S(=O)(=O)Nc3ccccc3)ccc2-c2ccsc2)c1` [Compound 16], the pIC50 is 5.00 to 6.00.

Regarding `Cc1ccc(NC(=O)Nc2cc(S(=O)(=O)Nc3ccccc3)ccc2-c2ccsc2)cc1C` [Compound 17], the pIC50 is 5.00 to 6.00.

For the compound `O=C(Nc1ccc(F)cc1)Nc1cc(S(=O)(=O)Nc2ccccc2)ccc1-c1ccsc1` [Compound 18], the pIC50 is 5.00 to 6.00.

With `O=C(Nc1ccc(F)c(Cl)c1)Nc1cc(S(=O)(=O)Nc2ccccc2)ccc1-c1ccsc1` [Compound 19], the pIC50 was 5.00 to 6.00.

For `O=C(Nc1ccc(F)c(F)c1)Nc1cc(S(=O)(=O)Nc2ccccc2)ccc1-c1ccsc1` [Compound 20], the pIC50 was 5.00 to 6.00.

For `O=C(Nc1ccc(F)c(C(F)(F)F)c1)Nc1cc(S(=O)(=O)Nc2ccccc2)ccc1-c1ccsc1` [Compound 21], the pIC50 was 5.00 to 6.00.

As for `O=C(Nc1ccccn1)Nc1cc(S(=O)(=O)Nc2ccccc2)ccc1-c1ccsc1` [Compound 22], the pIC50 was 5.00 to 6.00.

In the case of `O=C(Nc1ncco1)Nc1cc(S(=O)(=O)Nc2ccccc2)ccc1-c1ccsc1` [Compound 23], the pIC50 is 5.00 to 6.00.

As to `CC1CCC(NC(=O)Nc2cc(S(=O)(=O)Nc3ccccc3)ccc2-c2ccsc2)CC1` (stereo not drawn) [Compound 24], the pIC50 was 5.00 to 6.00.

Take `O=C(Nc1ccccc1Cl)Nc1cc(S(=O)(=O)NC2CC2)ccc1-c1ccsc1` [Compound 25, 3-(3-(2-chlorophenyl)ureido)-N-cyclopropyl-4-(thiophen-3-yl)benzenesulfonamide]: the pIC50 is 6.00 to 7.00.

With `O=C(Nc1cc(Cl)cc(Cl)c1)Nc1cc(S(=O)(=O)NC2CC2)ccc1-c1ccsc1` [Compound 26], the pIC50 is 5.00 to 6.00.

For the compound `O=C(Nc1cc(S(=O)(=O)NC2CC2)ccc1-c1ccsc1)Nc1cccc(Cl)c1Cl` [Compound 27, N-cyclopropyl-3-(3-(2,3-dichlorophenyl)ureido)-4-(thiophen-3-yl)benzenesulfonamide], the pIC50 was 6.00 to 7.00.

Turning to `O=C(Nc1cc(S(=O)(=O)NC2CC2)ccc1-c1ccsc1)Nc1ccc(F)cc1C(F)(F)F` [Compound 28, N-cyclopropyl-3-(3-(4-fluoro-2-(trifluoromethyl)phenyl)ureido)-4-(thiophen-3-yl)benzenesulfonamide], the pIC50 was 6.00 to 7.00.

As to `Cc1cncc(NC(=O)Nc2cc(S(=O)(=O)NC3CC3)ccc2-c2ccsc2)c1` [Compound 29, N-cyclopropyl-3-(3-(5-methylpyridin-3-yl)ureido)-4-(thiophen-3-yl)benzenesulfonamide], the pIC50 is 5.00 to 6.00.

As for `N#CC1(NS(=O)(=O)c2ccc(-c3ccsc3)c(NC(=O)Nc3cccc(C(F)(F)F)c3)c2)CC1` [Compound 31, N-(1-cyanocyclopropyl)-4-(thiophen-3-yl)-3-(3-(3-(trifluoromethyl)phenyl)ureido)benzenesulfonamide], the pIC50 was over 7.00.

Turning to `O=C(Nc1cccc(C(F)(F)F)c1)Nc1cc(S(=O)(=O)NC2COC2)ccc1-c1ccsc1` [Compound 32, N-(oxetan-3-yl)-4-(thiophen-3-yl)-3-(3-(3-(trifluoromethyl)phenyl)ureido)benzenesulfonamide], the pIC50 is over 7.00.

With `O=C(Nc1ccccc1F)Nc1cc(S(=O)(=O)NCC(F)(F)F)ccc1-c1ccccc1` [Compound 33, 2-(3-(2-fluorophenyl)ureido)-N-(2,2,2-trifluoroethyl)-[1,1′-biphenyl]-4-sulfonamide], the pIC50 is 6.00 to 7.00.

With `O=C(Nc1ccccc1)Nc1cc(S(=O)(=O)NC2CC2)ccc1-c1ccccc1` [Compound 34, N-cyclopropyl-2-(3-phenylureido)-[1,1′-biphenyl]-4-sulfonamide], the pIC50 was 6.00 to 7.00.

Take `O=C(Nc1ccccc1F)Nc1cc(S(=O)(=O)NC2CC2)ccc1-c1ccccc1` [Compound 35, N-cyclopropyl-2-(3-(2-fluorophenyl)ureido)-[1,1′-biphenyl]-4-sulfonamide]: the pIC50 was 6.00 to 7.00.

In the case of `O=C(Nc1cccc(C(F)(F)F)c1)Nc1cc(S(=O)(=O)NC2CC2)ccc1-c1ccccc1` [Compound 36, N-cyclopropyl-2-(3-(3-(trifluoromethyl)phenyl)ureido)-[1,1′-biphenyl]-4-sulfonamide], the pIC50 was 6.00 to 7.00.

As to `O=C(Nc1ccc(Cl)cc1)Nc1cc(S(=O)(=O)NCC(F)(F)F)ccc1-c1ccccc1` [Compound 37, 2-(3-(4-chlorophenyl)ureido)-N-(2,2,2-trifluoroethyl)-[1,1′-biphenyl]-4-sulfonamide], the pIC50 is 6.00 to 7.00.

`O=C(Nc1cc(F)ccc1F)Nc1cc(S(=O)(=O)NCC(F)(F)F)ccc1-c1ccccc1` [Compound 38, 2-(3-(2,5-difluorophenyl)ureido)-N-(2,2,2-trifluoroethyl)-[1,1′-biphenyl]-4-sulfonamide]: the pIC50 was 6.00 to 7.00.

Take `O=C(Nc1ccc(F)cc1)Nc1cc(S(=O)(=O)NCC(F)(F)F)ccc1-c1ccccc1` [Compound 39, 2-(3-(4-fluorophenyl)ureido)-N-(2,2,2-trifluoroethyl)-[1,1′-biphenyl]-4-sulfonamide]: the pIC50 is 6.00 to 7.00.

`O=C(Nc1ccc(F)c(Cl)c1)Nc1cc(S(=O)(=O)NCC(F)(F)F)ccc1-c1ccccc1` [Compound 40, 2-(3-(3-chloro-4-fluorophenyl)ureido)-N-(2,2,2-trifluoroethyl)-[1,1′-biphenyl]-4-sulfonamide]: the pIC50 was 6.00 to 7.00.

Turning to `O=C(Nc1cc(S(=O)(=O)NCC(F)(F)F)ccc1-c1ccccc1)Nc1c(F)cccc1F` [Compound 41, 2-(3-(2,6-difluorophenyl)ureido)-N-(2,2,2-trifluoroethyl)-[1,1′-biphenyl]-4-sulfonamide], the pIC50 was 6.00 to 7.00.

These data come from patent US10202339B2, “Therapeutic compounds and compositions” (AGIOS PHARMACEUTICALS, INC., priority 2012, dated 2019).
